Results on 14 molecules are retold here after PubChem BioAssay (NCI).

Holding throughout (assay): growth of human tumour cells (NCI), 48 h
The subject of test [1] is CCRF-CEM leukemia.
Test [2] concerns COLO 205 colon.
The test system of test [3] is DU-145 prostate.
Test [4] has as its system HCT-116 colon.
Test [5] has as its system HCT-15 colon.
Test [6] relates to HOP-62 NSCLC.
For test [7], the system named is M14 melanoma.
Test [8] concerns MDA-MB-435.
The test system of test [9] is SF-268 CNS.
Test [10] relates to SR leukemia.

SMILES strings stand for the structures.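 Five compound concentrations were applied to cells in 96-well plates for 48 hours; endpoints were derived by simple linear interpolation of the resulting dose-response curve. At the TGI there is no net growth.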 Where a SMILES comes first, the peptide text is derived from it. [ ]: non-standard residue; d: D form. The star is where a group is joined. Cbz = O=C(OCc1ccccc1)*; Boc = CC(C)(C)OC(=O)*; Aib = CC(C)(N)C(=O)O; OBn = c1ccc(CO*)cc1; OtBu = CC(C)(C)O*; βAla = NCCC(=O)O A value given as a limit tells only on which side of the number the result lay.

Turning to `CCCCN(c1ccccc1)c1ncnc2c1cnn2C`, the TGI is 49.6 µM in test [1]; over 100 µM in [2]; over 100 µM in [3]; over 100 µM in test [4]; over 100 µM in [5]; over 100 µM in test [6]. For the same molecule, the TGI in test [7], in test [8] and in test [9] was over 100 µM throughout.

Take `Nc1nc2c(ncn2C2C=CC(CO)O2)c(=O)[nH]1` (stereo not given): the TGI in [1], in [2], in test [3], in test [4], in test [5] and in [6] was over 100 µM in each case. Besides, the TGI in test [7], in test [8] and in test [10] was over 100 µM throughout.

Take `Cc1ccc2c(c1)OC1Nc3ccccc3C1=C2O` (stereo not given): the TGI is 29.2 µM in test [2]; over 100 µM in [3]; 65.1 µM in test [4]; over 100 µM in [5]; over 100 µM in test [6]; 68 µM in [7]. The TGI in [8] was 95.9 µM; in [9] it was over 100 µM; in [10], over 100 µM.

For `CCCCCCCCCCCCCCCCNc1nc(=O)n(C2CC(O)C(CO)O2)cc1F` (stereo not given), the TGI in test [2] came to 48.6 µM; in test [3] it was 21.6 µM; in [4], 23.5 µM; in test [5], 26.1 µM; in test [6] it was 20 µM; in test [7] it was 27.2 µM. Besides, the TGI in test [8] came to 24.6 µM; in [9], 22.3 µM; in test [10], 26.3 µM.

As for `COC(=O)C1(C(=O)OC)N=C(C)OC1C(C)C` (stereo not given), the TGI in [1], in test [2], in test [3], in [4], in test [5] and in test [6] was over 100 µM in each case. Besides, the TGI in [7], in [8] and in test [10] was over 100 µM each time.

Regarding `CCCCSc1n/c(=C\c2ccc(N(C)C)cc2)c2nnnn12`, the TGI in [2], in test [3], in test [4], in test [5], in test [6] and in [7] was over 100 µM throughout. In addition, the TGI in test [8], in test [9] and in [10] was over 100 µM throughout.

In the case of `N#CC1=CNc2sccc2S1(=O)=O`, the TGI in test [2], in test [3], in [4], in test [5], in test [6] and in [7] was over 100 µM throughout. In addition, the TGI in test [8] and in test [9] was over 100 µM throughout.

In the case of `COc1cc(/C=C2/SC(c3ccccc3)N(c3cccc([N+](=O)[O-])c3)C2=O)cc(OC)c1OC` (stereo not given), the TGI in [1], in [2], in [3], in test [4], in [5] and in test [6] was over 100 µM in each case. Besides, the TGI in test [7] was over 100 µM; in test [8], 86.4 µM; in [9], over 100 µM.

For the molecule `O=C1NC(N/N=C\c2ccccc2)=N/C1=C/c1ccc(Cl)cc1`, the TGI was over 100 µM in test [2]; over 100 µM in test [3]; 71.4 µM in test [4]; 62.7 µM in test [5]; 42 µM in [6]; over 100 µM in [7]. In addition, the TGI in test [8] was over 100 µM; in test [9] it was 94.7 µM; in test [10] it was 40.1 µM.

As for `COc1ccc(OC)c2cc(Cc3ccc(N(C)C)cc3)c(=O)c(Cc3ccc(N(C)C)cc3)cc12`, the TGI in test [1], in test [2], in [3], in test [4], in [5] and in [6] was over 100 µM throughout. Besides, the TGI in [7], in test [8] and in test [9] was over 100 µM each time.

Regarding `COC(OC)C(O)C1OC=CC1n1cnc2c(N)ncnc21` (stereo not given), the TGI in test [1], in test [2], in test [3], in [4], in [5] and in [6] was over 100 µM in each case. Further, the TGI in test [8], in test [9] and in [10] was over 100 µM each time.

On to `CC(C)(C)OC(=O)N1C(OP(=O)(Oc2ccccc2)Oc2ccccc2)=COc2cccnc21`, for which the TGI in [2], in test [3], in test [4], in [5], in test [6] and in test [7] was over 100 µM each time. For the same molecule, the TGI in test [8] was over 100 µM; in [9], over 100 µM; in test [10] it was 82.9 µM.

`CC(C)(C)OC(=O)CC(NC(=O)OC(C)(C)C)C(=O)NC(CCCCNC(=O)OCc1ccccc1)C(=O)NC(C)(C)C(=O)NCCC(=O)OCc1ccccc1` (stereo not given) (Boc-D(OtBu)K(Cbz)[Aib][βAla]-OBn; configuration not given here): the TGI in test [2], in test [3], in [4], in test [5], in [6] and in test [7] was over 100 µM throughout. The TGI in test [8], in test [9] and in test [10] was over 100 µM in each case.

In the case of `N#CCCN(CCCN(C(=O)Nc1ccccc1)c1ccccc1)C(=O)Nc1ccccc1`, the TGI in [1], in test [2], in test [3], in [4], in [5] and in test [6] was over 100 µM throughout. Moreover, the TGI in [7], in [8] and in [10] was over 100 µM in each case.
